Experiment [1] relates to aorta rings of Mas+/+ mice. Nature of the experiment: Vasorelaxation in phenylephrine-precontracted aorta rings of wild-type (Mas+/+) mice. The class given is cell-based, mice (C57/BI-6 and FVB/N). The note with it: both lineages C57/BI-6 and FVB/N, precontracted with fenilefrine 0.1 μM. As to the method: This example describes the vasodilating effect of Ala^1-Ang-(1-7), independently of the Mas receptor, on aorta rings of mice with genetic deletion of the Mas receptor (Mas−/−) and wild-type mice (Mas+/+) from two different lineages, C57/BI-6 and FVB/N.
(§1) The original rings of the descending thoracic aorta (2 mm), free from adipose tissue and connective tissue, were incubated in gasified solution (95% O2 and 5% CO2) of Krebs-Henseleit (mmol/L): NaCl 110.8, KCl 5.9, NaHCO3 25.0, MgSO4 1.07, CaCl2 2.49, NaH2PO4 2.33 and glucose 11.51, under a temperature of 37° C. and a 0.5 g tension, being equilibrated for 1 hour. The functional presence of endothelium was tested by its relaxing capacity produced by acetylcholine [ACh] (10 μM) on vessels precontracted with fenilefrine (0.3 μM). Only the vessels showing relaxation above 70% of extended contraction produced by fenilefrine were taken into account. […]
The aorta rings of mice Mas−/− and Mas+/+ from both lineages (C57/BI-6 and FVB/N) were precontracted to achieve the same tension level (approximately a 1.0 g tension) at a submaximum concentration of fenilefrine (0.1 μM). […] The vasodilating effects of Ala^1-Ang-(1-7) and Ang-(1-7) were expressed as a percentage of relaxation relative to the maximum contraction induced by fenilefrine. […]

Experiment [2] has as its system aorta rings of AT2−/− mice. Nature of the experiment: Vasorelaxation in precontracted aorta rings of AT2-/- mice. The class given is cell-based. Conditions: precontracted with fenilefrine 0.1 μM. The method, then: This example describes the vasodilating effect of Ala^1-Ang-(1-7) and Ang-(1-7)—which is independent of the AT2 receptor—on the aorta of mice with genetic deletion of AT2 (AT2−/−) receptor.
as §1, with “account. Data on mechanical activity were isometrically obtained by using an amplified strength transducer (Model TMB-4; World Precision Instruments, Inc. Sarasota, Fla., USA) and converted to digital signal (AD16JR; World Precision Instruments, Inc.).” for “account.”
The aorta rings of AT2−/− mice were precontracted (approx. 1.0 g of tension) with a felinefrine submaximum concentration (0.1 μM). […] The vasodilating effects of Ala^1-Ang-(1-7) and Ang-(1-7) were expressed as a relaxation percentage relative to the maximum contraction induced by fenilefrine. […]

On to “Ala^1-Arg^2-Val^3-Tyr^4-Ile^5-His^6-Pro^7 [Ala^1-Ang-(1-7)]”, for which, in experiment [1], the “vasorelaxation (relaxation relative to maximum contraction induced by fenilefrine)” value was “produced vasorelaxation”. Moreover, the vasodilating effect entry in experiment [2] is “preserved”.
Regarding “Asp^1-Arg^2-Val^3-Tyr^4-Ile^5-His^6-Pro^7 [Ang-(1-7)]”, in experiment [1], the “vasorelaxation (relaxation relative to maximum contraction induced by fenilefrine)” value is recorded as “produced vasorelaxation”. For the same substance, the vasodilating effect entry in experiment [2] is on record as “preserved”.

These data come from patent US9974825B2, “Peptides Des-[Asp1]-[Ala1], angiotensin-(1-7) agonist and pharmaceutical compositions for the treatment of diseases” (UNIVERSIDADE FEDERAL DE MINAS GERAIS, priority 2008, dated 2018).
